For data set [1] the following is noted: patients with metastatic castration resistant prostate cancer, regardless of prior bisphosphonates; cited from earlier work.
Data set [2] has as its system human bone marrow-derived CD34+ osteoclast precursor cells. As to the kind of experiment: Osteoclast differentiation assay (secreted TRACP 5b at day 7). The class given is cell-based. On the procedure:
The study was performed in four parts. In the first part, human bone marrow-derived CD34+ osteoclast precursor cells were cultured on bovine bone slices for 7 days, after which the formed osteoclasts were quantitated by measuring tartrate-resistant acid phosphatase 5b activity (TRACP 5b) in the culture medium.
The objective of this study was to investigate the effects of Compound 1 selected by the Sponsor on differentiation and activity of human osteoclasts and mouse osteoblasts in vitro. The effects on osteoclasts were studied using a model where bone marrow-derived human osteoclast precursor cells are cultured on bovine bone slices for 7 days in conditions favouring osteoclast differentiation, and allowed to differentiate into bone-resorbing osteoclasts. After completion of osteoclast differentiation at day 7, the culture medium was removed and new culture medium favouring osteoclast activity was added into the wells. The mature osteoclasts were then cultured for an additional 3 days, allowing them to resorb bone. In the osteoclast differentiation assay, the test compounds and a reference inhibitor osteoprotegerin (OPG) were added into cultures at day 0. In the osteoclast activity assay, the test compounds and a reference inhibitor E64 were added into cultures at day 7. Seven concentrations in 8 replicates were tested in both assays. Tartrate-resistant acid phosphatase 5b activity (TRACP 5b) was measured from the culture medium collected at day 7 as an index of the number of osteoclasts formed in each well during the differentiation period. C-terminal cross-linked telopeptides of type I collagen (CTX) was measured from the culture medium collected at day 10 to quantitate bone resorption during days 7-10.
A human osteoclast culture system was developed for use in this study where CD34+ osteoclast precursor cells derived from human bone marrow (Poietics® Human Osteoclast Precursors, Lonza, Walkersville, USA) are cultured on bovine bone slices in the presence of appropriate growth factors, including M-CSF and RANK-ligand (Rissanen et al. 2009). The cells are first allowed to differentiate into mature bone-resorbing osteoclasts, and the formed osteoclasts are then allowed to resorb bone. The test and reference compounds are added into the cell cultures at the beginning of the differentiation and/or the resorption period, and their effects on the differentiation and/or resorbing activity of osteoclasts are determined.
Secreted TRACP 5b is determined from the culture medium after the differentiation period using a commercially available method (BoneTRAPÒ, IDS Ltd, Boldon, UK). Secreted TRACP 5b describes accurately the number of osteoclasts formed in each well during the differentiation period. CTX is determined from the culture medium after the resorption period using a commercially available method (CrossLapsÒ for cultures, IDS Ltd, Boldon, UK). CTX describes accurately the amount of bone collagen degradation products released into the culture medium in each well during the resorption period.
In this study, human bone marrow-derived CD34+ stem cells (10000 cells/well) were suspended in culture medium and allowed to attach to bovine bone slices in 96-well tissue culture plates. The culture medium (containing 10% FBS, OCP BulletKit® Lonza, Walkersville, USA) was supplemented with appropriate amounts of important growth factors favoring osteoclast differentiation and activity, including M-CSF (33 ng/ml, OCP BulletKit® Lonza, Walkersville, USA) and RANK-ligand (66 ng/ml, OCP BulletKit® Lonza, Walkersville, USA) in 200 μl of medium. The cells were incubated in a CO2 incubator in humidified atmosphere of 95% air and 5% carbon dioxide at 37° C. for 7 days. The test compounds and reference compound OPG were added at day 0. Supernatants collected at day 7 were stored at −70° C. until analysis of TRACP 5b. TRACP 5b was measured from the culture medium (20 μl/sample) using VICTOR2™ Multilabel Counter (PerkinElmer, Waltham, Mass., USA). […]

As for `COc1cc2nccc(Oc3ccc(NC(=O)C4(C(=O)Nc5ccc(F)cc5)CC4)cc3)c2cc1OC` [Compound 1, N-(4-{[6,7-bis(methyloxy)quinolin-4-yl]oxy}phenyl)-N′-(4-fluorophenyl)cyclopropane-1,1-dicarboxamide], the “plasma CTx” value in data set [1] is listed as “decrease”. The “number of Hoechst and TRACP positive mononuclear cells (microscopic analysis)” value is given as “did not affect” in data set [2] (0.11 and 0.33 μM); “decreased” in data set [2] (1.0 and 3.0 μM, effects at least partly cytotoxic). Besides, the activity at 0.004 µM in data set [2] (Homo sapiens, Osteoclast, 168 h, 0.004 μM Compound 1, read-out: TRACP 5b Activity at Day 7, Percent Activity (%) Compared to BL) is 85%. The activity at 0.012 µM in data set [2] (Homo sapiens, Osteoclast, 168 h, 0.012 μM Compound 1, read-out: TRACP 5b Activity at Day 7, Percent Activity (%) Compared to BL) stood at 80%. The activity at 0.037 µM in data set [2] (Homo sapiens, Osteoclast, 168 h, 0.037 μM Compound 1, read-out: TRACP 5b Activity at Day 7, Percent Activity (%) Compared to BL) was found to be 74%. In addition, the activity at 0.11 µM in data set [2] (Homo sapiens, Osteoclast, 168 h, 0.11 μM Compound 1, read-out: TRACP 5b Activity at Day 7, Percent Activity (%) Compared to BL) was 45%. In addition, the activity at 0.33 µM in data set [2] (Homo sapiens, Osteoclast, 168 h, 0.33 μM Compound 1, read-out: TRACP 5b Activity at Day 7, Percent Activity (%) Compared to BL) is 15%. In addition, in data set [2] (Homo sapiens, Osteoclast, 168 h, 1.0 μM Compound 1, read-out: TRACP 5b Activity at Day 7, Percent Activity (%) Compared to BL), the activity at 1 µM was determined as 4%. In data set [2] (Homo sapiens, Osteoclast, 168 h, 3.0 μM Compound 1, read-out: TRACP 5b Activity at Day 7, Percent Activity (%) Compared to BL), the activity at 3 µM turned out to be 0%. Also, in data set [2] (significant with 0.11, 0.33, 1.0 and 3.0 μM concentrations), the “effect on osteoclast differentiation” value was “dose-dependent inhibition”.

Values taken from patent publication US10166225B2, “Method for treating osteoporosis” (Exelixis, Inc., priority 2011, dated 2019).
